Test results: patent publication US10179767B2 (GENENTECH, INC., priority 2015, dated 2019)
Structures can show the parent of a compound that is named as a salt.

Molecular target: T1, hNav1.7 (Homo sapiens, UniProt Q15858)
T1 construct: expressed in transfected cells
Assay: Tritiated sulfonamide binding to membranes from cells expressing hNav1.7 and the β1 subunit (Nav 1.7 ligand binding assay, competitive)
Conditions: competition with 100 pM [3H]compound, room temperature, 18 h
Description: Tritiated Sulfonamide Binding to Membranes Isolated from Cells that Heterologously Express hNav1.7 and the β1 Subunit
Preparation of membranes containing recombinantly expressed sodium channels: Frozen recombinant cell pellets were thawed on ice and diluted to 4 times the cell pellet weight with ice cold 50 mM Tris HCl, pH 7.4 buffer. The cell suspensions were homogenized on ice using a motorized glass dounce homogeniser. Homogenates were further diluted 8.4 times with ice cold 50 mM Tris HCl, pH 7.4 buffer and then centrifuged at 200×g at 4° C. for 15 min. The supernatants were collected and centrifuged at 10000×g at 4° C. for 50 min. The pellets were then re-suspended in 100 mM NaCl, 20 mM Tris HCl, pH 7.4 buffer containing 1% v/v protease inhibitors (Calbiochem) and re-homogenized on ice. The homogenized membranes were then processed through a syringe equipped with a 26 gauge needle. Protein concentrations were determined by Bradford Assay and the membranes were stored at −80° C.
Radioligand Binding Studies:
Saturation experiments. A competitive NaV1.7 inhibitor having a methyl group was tritiated. Three tritiums were incorporated in place of methyl hydrogens to generate [^3H]compound. Binding of this radioligand was preformed in 5 mL borosilicate glass test tubes at room temperature. Binding was initiated by adding membranes to increasing concentrations of [^3H]compound in 100 mM NaCl, 20 mM Tris HCl, pH 7.4 buffer containing 0.01% w/v bovine serum albumin (BSA) for 18 h. Non-specific binding was determined in the presence of 1 μM unlabelled compound. After 18 h, the reactants were filtered through GF/C glass fiber filters presoaked in 0.5% w/v polyethylene imine Filters were washed with 15 mL ice cold 100 mM NaCl, 20 mM Tris HCl, pH7.4 buffer containing 0.25% BSA to separate bound from free ligand. [^3H]compound bound to filters was quantified by liquid scintillation counting.
Competitive Binding Experiments:
Binding reactions were preformed in 96-well polypropylene plates at room temperature for 18 h. In 360 μL, membranes were incubated with 100 pM [^3H]compound and increasing concentrations of Test Compound. Non-specific binding was defined in the presence of 1 μM unlabelled compound. Reactions were transferred and filtered through 96-well glass fiber/C filter plates presoaked with 0.5% polyethylene imine. The filtered reactions were washed 5 times with 200 μL ice cold buffer containing 0.25% BSA. Bound radioactivity was determined by liquid scintillation counting. Data Analysis: For saturation experiments, non-specific binding was subtracted from total binding to provide specific binding and these values were recalculated in terms of pmol ligand bound per mg protein. Saturation curves were constructed and dissociation constants were calculated using the single site ligand binding model: Beq=(Bmax*X)/(X+Kd), where Beq is the amount of ligand bound at equilibrium, Bmax is the maximum receptor density, Kd is the dissociation constant for the ligand, and X is the free ligand concentration. For competition studies percent inhibition was determined and IC50 values were calculated using a 4 parameter logistic model (% inhibition=(A+((B−A)/(1+((x/C)⨣D)))) using XLfit, where A and B are the maximal and minimum inhibition respectively, C is the IC50 concentration and D is the (Hill) slope.

T1 sequence (Q15858 whole entry): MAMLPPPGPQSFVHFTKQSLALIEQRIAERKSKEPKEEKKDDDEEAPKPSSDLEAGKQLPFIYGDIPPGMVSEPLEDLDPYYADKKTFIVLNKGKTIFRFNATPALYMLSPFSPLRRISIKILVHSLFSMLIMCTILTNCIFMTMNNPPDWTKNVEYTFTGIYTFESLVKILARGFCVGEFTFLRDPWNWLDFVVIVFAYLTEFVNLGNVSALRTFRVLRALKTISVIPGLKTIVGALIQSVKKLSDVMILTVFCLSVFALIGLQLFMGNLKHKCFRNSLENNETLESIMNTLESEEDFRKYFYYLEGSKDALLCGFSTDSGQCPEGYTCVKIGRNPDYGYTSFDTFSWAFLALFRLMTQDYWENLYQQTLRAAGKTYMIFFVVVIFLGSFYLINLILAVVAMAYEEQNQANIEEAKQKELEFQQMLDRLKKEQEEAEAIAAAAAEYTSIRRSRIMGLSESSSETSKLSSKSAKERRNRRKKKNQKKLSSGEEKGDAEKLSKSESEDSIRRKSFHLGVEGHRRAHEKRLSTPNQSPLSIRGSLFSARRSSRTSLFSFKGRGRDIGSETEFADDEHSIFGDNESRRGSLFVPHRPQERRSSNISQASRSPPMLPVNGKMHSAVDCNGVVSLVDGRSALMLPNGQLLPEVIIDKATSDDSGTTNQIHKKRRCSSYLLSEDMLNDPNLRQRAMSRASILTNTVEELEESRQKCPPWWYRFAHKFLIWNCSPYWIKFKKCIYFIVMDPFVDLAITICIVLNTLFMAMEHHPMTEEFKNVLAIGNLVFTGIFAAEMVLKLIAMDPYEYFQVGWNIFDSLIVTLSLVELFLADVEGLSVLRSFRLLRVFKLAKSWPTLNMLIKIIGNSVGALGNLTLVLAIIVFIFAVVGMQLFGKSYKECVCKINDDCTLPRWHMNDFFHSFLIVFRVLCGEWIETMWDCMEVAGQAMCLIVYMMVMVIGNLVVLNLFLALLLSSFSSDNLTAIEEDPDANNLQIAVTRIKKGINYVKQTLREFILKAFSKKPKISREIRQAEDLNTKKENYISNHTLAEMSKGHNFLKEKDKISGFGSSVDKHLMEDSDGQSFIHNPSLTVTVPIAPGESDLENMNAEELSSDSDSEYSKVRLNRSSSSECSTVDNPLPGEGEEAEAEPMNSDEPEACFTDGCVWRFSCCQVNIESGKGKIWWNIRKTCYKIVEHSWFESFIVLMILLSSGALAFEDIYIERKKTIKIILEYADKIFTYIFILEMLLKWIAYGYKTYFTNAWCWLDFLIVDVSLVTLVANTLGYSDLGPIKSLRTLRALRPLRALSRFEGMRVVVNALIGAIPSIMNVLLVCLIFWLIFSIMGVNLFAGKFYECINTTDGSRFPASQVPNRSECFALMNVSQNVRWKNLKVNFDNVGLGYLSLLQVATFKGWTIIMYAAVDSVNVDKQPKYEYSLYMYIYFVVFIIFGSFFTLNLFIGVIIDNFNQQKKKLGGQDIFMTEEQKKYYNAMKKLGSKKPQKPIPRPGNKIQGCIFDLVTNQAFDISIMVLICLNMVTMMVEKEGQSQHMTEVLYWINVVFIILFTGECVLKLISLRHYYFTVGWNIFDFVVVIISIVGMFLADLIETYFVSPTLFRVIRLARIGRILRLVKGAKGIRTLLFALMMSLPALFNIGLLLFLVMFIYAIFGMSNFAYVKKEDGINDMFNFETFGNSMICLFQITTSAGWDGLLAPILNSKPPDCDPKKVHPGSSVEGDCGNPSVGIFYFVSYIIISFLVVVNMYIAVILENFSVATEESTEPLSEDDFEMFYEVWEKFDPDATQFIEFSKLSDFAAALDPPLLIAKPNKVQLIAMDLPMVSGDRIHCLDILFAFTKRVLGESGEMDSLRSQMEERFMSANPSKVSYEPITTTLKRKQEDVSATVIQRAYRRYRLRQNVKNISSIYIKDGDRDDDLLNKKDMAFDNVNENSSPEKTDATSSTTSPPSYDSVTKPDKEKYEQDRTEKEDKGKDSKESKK
T1 sequence (Q07699 19-218 partner): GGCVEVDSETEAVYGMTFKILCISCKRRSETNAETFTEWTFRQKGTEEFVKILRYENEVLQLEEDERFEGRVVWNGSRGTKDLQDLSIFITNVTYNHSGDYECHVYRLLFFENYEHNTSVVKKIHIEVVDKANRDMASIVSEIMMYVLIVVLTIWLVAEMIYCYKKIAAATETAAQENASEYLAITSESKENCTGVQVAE

Row | SMILES | IC50
1 | CS(=O)(=O)NC(=O)c1cc(C2CC2)c(OCC2(F)CCN(Cc3ccc(Cl)cc3Cl)CC2)cc1F [Example 20, 5-Cyclopropyl-4-((1-(2,4-dichlorobenzyl)-4-fluoropiperidin-4-yl)methoxy)-2-fluoro-N-(methylsulfonyl)benzamide] | 3.5 nM
2 | COCC(c1cc(Cl)cc(Cl)c1F)N1CCC(COc2cc(F)c(C(=O)NS(C)(=O)=O)cc2C2CC2)CC1 (stereo not shown) [Example 21, 5-cyclopropyl-4-((1-(1-(3,5-dichloro-2-fluorophenyl)-2-methoxyethyl)piperidin-4-yl)methoxy)-2-fluoro-N-(methylsulfonyl)benzamide] | 4.4 nM
3 | CS(=O)(=O)NC(=O)c1cc(C2CC2)c(OCC2CCN(Cc3cc(Cl)cc(OC4CC4)c3)CC2)cc1F [Example 28, 4-((1-(3-Chloro-5-cyclopropoxybenzyl)piperidin-4-yl)methoxy)-5-cyclopropyl-2-fluoro-N-(methylsulfonyl)benzamide] | 6 nM
4 | CS(=O)(=O)NC(=O)c1cc(C2CC2)c(OCC2(F)CCN(Cc3ccc(F)cc3Cl)CC2)cc1F [Example 29, 4-((1-(2-Chloro-4-fluorobenzyl)-4-fluoropiperidin-4-yl)methoxy)-5-cyclopropyl-2-fluoro-N-(methylsulfonyl)benzamide] | 4.2 nM
5 | CS(=O)(=O)NC(=O)c1cc(C2CC2)c(OCC2(F)CCN(Cc3ccc(F)c(Cl)c3)CC2)cc1F [Example 31, 4-((1-(3-Chloro-4-fluorobenzyl)-4-fluoropiperidin-4-yl)methoxy)-5-cyclopropyl-2-fluoro-N-(methylsulfonyl)benzamide] | 5.3 nM
6 | CS(=O)(=O)NC(=O)c1cc(C2CC2)c(OCC2(F)CCN(Cc3ncc(C(F)(F)F)cc3Cl)CC2)cc1F [Example 42, 4-((1-((3-chloro-5-(trifluoromethyl)pyridin-2-yl)methyl)-4-fluoropiperidin-4-yl)methoxy)-5-cyclopropyl-2-fluoro-N-(methylsulfonyl)benzamide] | 19 nM
7 | CS(=O)(=O)NC(=O)c1cc(C2CC2)c(OCC2(F)CCN(Cc3cc(C(F)(F)F)cc(C4CC4)n3)CC2)cc1F [Example 43, 5-cyclopropyl-4-((1-((6-cyclopropyl-4-(trifluoromethyl)pyridin-2-yl)methyl)-4-fluoropiperidin-4-yl)methoxy)-2-fluoro-N-(methylsulfonyl)benzamide] | 9.8 nM
8 | CC(c1cc(Cl)cc(C2CC2)n1)N1CCC(COc2cc(F)c(C(=O)NS(=O)(=O)C3CC3)cc2C2CC2)CC1 (stereo not shown) [Example 47, 4-((1-(1-(4-chloro-6-cyclopropylpyridin-2-yl)ethyl)piperidin-4-yl)methoxy)-5-cyclopropyl-N-(cyclopropylsulfonyl)-2-fluorobenzamide] | 9.9 nM
9 | CC(c1cc(Cl)cc(Cl)c1)N1CCC2(CC1)CC(Oc1cc(F)c(C(=O)NS(C)(=O)=O)cc1C1CC1)C2 (stereo not shown) [Example 48, 5-cyclopropyl-4-((7-(1-(3,5-dichlorophenyl)ethyl)-7-azaspiro[3.5]nonan-2-yl)oxy)-2-fluoro-N-(methylsulfonyl)benzamide] | 9 nM
10 | C[C@@H]1[C@H](Oc2cc(F)c(C(=O)NS(C)(=O)=O)cc2C2CC2)CCCN1Cc1cc(Cl)cc(Cl)c1 [Example 52, 5-cyclopropyl-4-(((2R,3R)-1-(3,5-dichlorobenzyl)-2-methylpiperidin-3-yl)oxy)-2-fluoro-N-(methylsulfonyl)benzamide] | 2.4 nM
11 | CS(=O)(=O)NC(=O)c1cc(C2CC2)c(OCC2CCN(Cc3cc(Cl)cc(C(F)(F)F)n3)CC2)cc1F [Example 53, 4-((1-((4-chloro-6-(trifluoromethyl)pyridin-2-yl)methyl)piperidin-4-yl)methoxy)-5-cyclopropyl-2-fluoro-N-(methylsulfonyl)benzamide] | 9.4 nM
12 | O=C(NS(=O)(=O)C1CC1)c1cc(C2CC2)c(OCC2CCN(Cc3cc(Cl)cc(C(F)(F)F)n3)CC2)cc1F [Example 54] | 4.2 nM
13 | CC(C)Oc1ncc(CN2CCC(F)(COc3cc(F)c(C(=O)NS(=O)(=O)C4CC4)cc3C3CC3)CC2)cc1Cl [Example 56, 4-((1-((5-chloro-6-isopropoxypyridin-3-yl)methyl)-4-fluoropiperidin-4-yl)methoxy)-5-cyclopropyl-N-(cyclopropylsulfonyl)-2-fluorobenzamide] | 6.8 nM

Further compounds by falling IC50, results first:

Row | IC50 | SMILES
14 | 140 nM | O=C(NS(=O)(=O)N1CCC1)c1cc(C2CC2)c(O[C@H]2CCCN(Cc3ccc(F)cc3Cl)C2)cc1F [Example 41, (S)—N-(azetidin-1-ylsulfonyl)-4-((1-(2-chloro-4-fluorobenzyl)piperidin-3-yl)oxy)-5-cyclopropyl-2-fluorobenzamide]
15 | 18 nM | CC(c1ncc(Cl)cc1Cl)N1CCC(COc2cc(F)c(C(=O)NS(C)(=O)=O)cc2C2CC2)CC1 (stereo not shown) [Example 44, 5-cyclopropyl-4-((1-(1-(3,5-dichloropyridin-2-yl)ethyl)piperidin-4-yl)methoxy)-2-fluoro-N-(methylsulfonyl)benzamide]
16 | 12 nM | CC(c1cc(Cl)cc(C2CC2)n1)N1CCC(COc2cc(F)c(C(=O)NS(C)(=O)=O)cc2C2CC2)CC1 (stereo not shown) [Example 46, 4-((1-(1-(4-chloro-6-cyclopropylpyridin-2-yl)ethyl)piperidin-4-yl)methoxy)-5-cyclopropyl-2-fluoro-N-(methylsulfonyl)benzamide]
17 | 11 nM | CS(=O)(=O)NC(=O)c1cc(C2CC2)c(OCC2CCN(Cc3cc(Cl)cc(C4CC4)n3)CC2)cc1F [Example 49, 4-((1-((4-chloro-6-cyclopropylpyridin-2-yl)methyl)piperidin-4-yl)methoxy)-5-cyclopropyl-2-fluoro-N-(methylsulfonyl)benzamide]
18 | 11 nM | CC(c1cc(C(F)(F)F)cc(C2CC2)n1)N1CCC(COc2cc(F)c(C(=O)NS(=O)(=O)C3CC3)cc2C2CC2)CC1 (stereo not shown) [Example 51, 5-cyclopropyl-4-((1-(1-(6-cyclopropyl-4-(trifluoromethyl)pyridin-2-yl)ethyl)piperidin-4-yl)methoxy)-N-(cyclopropylsulfonyl)-2-fluorobenzamide]
19 | 9.1 nM | CC(c1cc(C(F)(F)F)cc(C2CC2)n1)N1CCC(COc2cc(F)c(C(=O)NS(C)(=O)=O)cc2C2CC2)CC1 (stereo not shown) [Example 50, 5-cyclopropyl-4-((1-(1-(6-cyclopropyl-4-(trifluoromethyl)pyridin-2-yl)ethyl)piperidin-4-yl)methoxy)-2-fluoro-N-(methylsulfonyl)benzamide]
20 | 8.6 nM | C[C@@H](c1cc(Cl)cc(Cl)c1)N1CCC(COc2cc(F)c(C(=O)NS(=O)(=O)C3(F)CC3)cc2C2CC2)CC1 [Example 57, (S)-4-((2-cyclopropyl-5-fluoro-4-(((1-fluorocyclopropyl)sulfonyl)carbamoyl)phenoxy)methyl)-1-(1-(3,5-dichlorophenyl)ethyl)piperidin-1-ium trifluoroacetate]
21 | 5.6 nM | CC(C)Oc1ncc(CN2CCC(F)(COc3cc(F)c(C(=O)NS(C)(=O)=O)cc3C3CC3)CC2)cc1Cl [Example 55, 4-((1-((5-chloro-6-isopropoxypyridin-3-yl)methyl)-4-fluoropiperidin-4-yl)methoxy)-5-cyclopropyl-2-fluoro-N-(methylsulfonyl)benzamide]
22 | 4.9 nM | CS(=O)(=O)NC(=O)c1cc(C2CC2)c(OCC2(F)CCN(Cc3cc(F)cc(Cl)c3)CC2)cc1F [Example 30, 4-((1-(3-Chloro-5-fluorobenzyl)-4-fluoropiperidin-4-yl)methoxy)-5-cyclopropyl-2-fluoro-N-(methylsulfonyl)benzamide]
